Experimental findings from patent US10029986B2, “Alkynyl pyridine-substituted amide compound and pesticide” (NISSAN CHEMICAL INDUSTRIES, LTD., priority 2014, dated 2018) are described below.

This test relates to Colletotrichum lagenarium (Synonym: Colletotrichum orbiculare). Put plainly: Test on the preventive effect against cucumber anthracnose. The format is in vivo. To be noted: 168 h, test solution A 500 ppm, 5 ml per pot sprayed, 2 days inoculation chamber then 7 days at 23° C. The procedure:
Compounds of the present invention were dissolved in a solvent for emulsion (a mixture of Sorpol (registered trademark) 3005XL (manufactured by Toho Chemical Industry Co., Ltd.): N-methylpyrrolidone: Solvesso (registered trademark) 200 (manufactured by ExxonMobil Chemical) in a ratio of 1:5:2) to prepare 20 wt % emulsifiable concentrates. Then, distilled water was added to dilute the emulsifiable concentrates to the prescribed concentration (500 ppm), and the obtained solutions were used in the following the Test Examples 1 to 8. Cucumber (varieties: Sagami Hanjiro) was seeded in 90 cm^3 plastic pot, and at the cotyledon stage, 5 ml per pot of test solution A of the compounds of the present invention was sprayed. One day later, a suspension of conidium of Colletotrichum lagenarium (Synonym: Colletotrichum orbiculare) was sprayed, and the pot was left for 2 days in the inoculation chamber at 25° C. under humidity of 100% RH. Thereafter, the pot was placed in an air-conditioned greenhouse (23° C.) and left at the same temperature for 7 days. Thereafter, the proportion of the formed lesion in the inoculated leaves were measured to calculate the control value in accordance with the same formula as in Test Example 1. The test was carried out in duplicate.
Broadly, the pest or weed control is how far the test organism was held down. High values mean a strong effect, low ones a weak effect. `CSC(CNC(=O)c1cn(C)nc1C(F)F)c1ncc(C#CC2CC2)cc1Cl` (centres unmarked) [8-020, N-[2-[3-chloro-5-(cyclopropylethynyl)pyridin-2-yl]-2-(methylthio)ethyl]-3-difluoromethyl-1-methyl-1H-pyrazole-4-carboxamide] gave a pest or weed control at 500 µg/mL of no less than 70%.

Turning to `CSC(CNC(=O)c1cccnc1C(F)F)c1ncc(C#CC2CC2)cc1Cl` (centres unmarked) [3-020], the pest or weed control at 500 µg/mL was no less than 70%.

`O=C(NCC(F)(F)c1ncc(C#CC2CC2)cc1Cl)c1ccccc1C(F)(F)F` [1-005] returned a pest or weed control at 500 µg/mL of no less than 70%.

`Cn1cc(C(=O)NCC(c2ncc(C#CC3CC3)cc2Cl)C2CC2)c(C(F)F)n1` (centres unmarked) [8-009] came in with a pest or weed control at 500 µg/mL of no less than 70%.

Turning to `Cn1cc(C(=O)NCC(F)(F)c2ncc(C#CC3CC3)cc2Cl)c(C(F)F)n1` [8-003], the pest or weed control at 500 µg/mL is no less than 70%.

In turn, `O=C(NCC(c1ncc(C#CC2CC2)cc1Cl)C1CC1)c1cccnc1C(F)F` (centres unmarked) [3-008] had a pest or weed control at 500 µg/mL of no less than 70%.

`CC#Cc1cnc(CCNC(=O)c2ccccc2C(F)(F)F)c(Cl)c1` [1-001, N-[2-[3-chloro-5-(1-propynyl)pyridin-2-yl]ethyl]-2-(trifluoromethyl)benzamide] displayed a pest or weed control at 500 µg/mL of no less than 70%.

Regarding `Cc1nc(C(F)F)c(C(=O)NCC(C)c2ncc(C#CC3CC3)cc2Cl)s1` (centres unmarked) [9-002], the pest or weed control at 500 µg/mL was no less than 70%.

Compound `O=C(NCCc1ncc(C#CC2CC2)cc1Cl)c1ccccc1C(F)(F)F` [1-002] had a pest or weed control at 500 µg/mL of no less than 70%.

Regarding `CC(C)(C)C#Cc1cnc(CCNC(=O)c2cccnc2C(F)F)c(Cl)c1` [3-002], the pest or weed control at 500 µg/mL was no less than 70%.

`CC(Cc1ncc(C#CC2CC2)cc1Cl)NC(=O)c1cn(C)nc1C(F)F` (centres unmarked) [8-024, N-[2-[3-chloro-5-(cyclopropylethynyl)pyridin-2-yl]-1-methylethyl]-3-difluoromethyl-1-methyl-1H-pyrazole-4-carboxamide] gave a pest or weed control at 500 µg/mL of no less than 70%.

`CC(CNC(=O)c1cccnc1C(F)F)c1ncc(C#CC2CC2)cc1Cl` (centres unmarked) [3-006]: the pest or weed control at 500 µg/mL was no less than 70%.

In turn, `CC(Cc1ncc(C#Cc2ccccc2)cc1Cl)NC(=O)c1cn(C)nc1C(F)F` (centres unmarked) [8-027] had a pest or weed control at 500 µg/mL of no less than 70%.

`O=C(NCC(F)(F)c1ncc(C#CC2CC2)cc1Cl)c1cccnc1C(F)F` [3-003, N-[2-[3-chloro-5-(cyclopropylethynyl)pyridin-2-yl]-2,2-difluoroethyl]-2-(difluoromethyl)nicotinamide] had a pest or weed control at 500 µg/mL of no less than 70%.
